Test results as given in patent US11213510B2, “Thioindirubins” (City of Hope, priority 2017, dated 2022).
Like-named read-outs stand apart in the source and are kept apart here.

Legend:
Type in all cases: cell-based
[1] = test system: DU145 prostate cancer cell line; assay: MTS cell viability assay, DU145; settings: for Cell viability (% control) DU145 1 μM / Cell viability (% control) DU145 10 μM / Cell viability at 10 μM (% control) DU145: 48 h; for Cell viability (% control) DU145 1 μM / Cell viability (% control) DU145 10 μM / IC50: MTS; for Cell viability at 10 μM (% control) DU145: MTS (Table 2); for IC50: DU145, 48 h, read-out: IC50 values (μM) against prostate cancer and melanoma DU145 (prostate cancer)
Description: (§1) To determine if novel synthetic thioindirubins have antitumor activities, we performed an MTS cell viability assay. Initially, we screened them at […] final concentration with A2058 melanoma and DU145 prostate cancer cell lines. Then, compound 9b and compound 7e were selected to determine IC50 values against prostate cancer, melanoma and lung cancer cells, including DU145, A2058, A549, H513, H2461, H358, DMS114, H2596, DMS273, H69, H526 and DMS114 cell lines. For the viability assay, 5000 cells/well were seeded in 96-well plates, incubated overnight at 37° C. in 5% CO2 and then exposed to […] of compounds or in a dose-dependent manner for 48 h. After 48 h treatment with compounds, MTS dye (20 μL/well) was added to 96-well plates. Viable cell numbers were determined by tetrazolium conversion to its formazan dye. Absorbance was measured at 490 nm using the BMG LABTECH plate reader. Dimethyl sulfoxide (DMSO) was used as the vehicle control. Each experiment was conducted in triplicate. IC50 values were determined using CalcuSyn software (Biosoft).

[2] = test system: A2058 melanoma cell line; assay: MTS cell viability assay, A2058; settings: for Cell viability (% control) A2058 1 μM / Cell viability (% control) A2058 10 μM / Cell viability at 10 μM (% control) A2058: 48 h; for Cell viability (% control) A2058 1 μM / Cell viability (% control) A2058 10 μM / IC50: MTS; for Cell viability at 10 μM (% control) A2058: MTS (Table 2); for IC50: A2058, 48 h, read-out: IC50 values (μM) against prostate cancer and melanoma A2058 (melanoma)
Description: as §1

[3] = test system: DMS114 small lung cancer cell line; assay: MTS cell viability assay, DMS114; settings: read-out: IC50 values (μM) against small lung cancer DMS114
Description: as §1

[4] = test system: H358 non-small lung cancer cell line; assay: MTS cell viability assay, H358; settings: read-out: IC50 values (μM) against non-small lung cancer H358
Description: as §1

[5] = test system: H526 small lung cancer cell line; assay: MTS cell viability assay, H526; settings: read-out: IC50 values (μM) against small lung cancer H526
Description: as §1

[6] = test system: A549 non-small lung cancer cell line; assay: MTS cell viability assay, A549; settings: A549, 48 h, read-out: IC50 values (μM) against non-small lung cancer A549
Description: as §1

[7] = test system: H513 non-small lung cancer cell line; assay: MTS cell viability assay, H513; settings: H513, 48 h, read-out: IC50 values (μM) against non-small lung cancer H513
Description: as §1

[8] = test system: H2461 non-small lung cancer cell line; assay: MTS cell viability assay, H2461; settings: H2461, 48 h, read-out: IC50 values (μM) against non-small lung cancer H2461
Description: as §1

[9] = test system: H2596 non-small lung cancer cell line; assay: MTS cell viability assay, H2596; settings: H2596, 48 h, read-out: IC50 values (μM) against non-small lung cancer H2596
Description: as §1

[10] = test system: H69 small lung cancer cell line; assay: MTS cell viability assay, H69; settings: H69, 48 h, read-out: IC50 values (μM) against small lung cancer H69
Description: as §1

[11] = test system: DMS273 small lung cancer cell line; assay: MTS cell viability assay, DMS273; settings: read-out: IC50 values (μM) against small lung cancer DMS273
Description: as §1

[12] = test system: lung cancer, prostate cancer and melanoma cell lines; assay: MTS cell viability assay, cancer cell line panel (summary statement); settings: some cell lines, not specified; read-out: IC50 against some cell lines (antitumor activities)
Experimental: IC50 values (μM) of compound 9b were determined using lung cancer cell lines including non-small lung cancer cell lines (Table 3: A549, H513, H2461, H358, ad H2596) and small lung cancer cell lines (Table 4: DMS273, H69, H526, and DMS114), prostate cancer (Table 5: DU145), melanoma (Table 5: A2058).
as §1

SMILES | Cell viability (% control) DU145 1 μM [1] [% control] | Cell viability (% control) DU145 10 μM ([1]; DU145, 10 μM) [% control] | Cell viability (% control) A2058 1 μM [2] [% control] | Cell viability (% control) A2058 10 μM ([2]; A2058, 10 μM) [% control] | also measured
Cc1ccc2c(c1)C(=N\O)/C(=C1/C(=O)Nc3ccccc31)S2 [Compound 7g, (2′Z,3′E)-5′-Methylthioindirubin-3′-oxime] | 88 | 79 | 84 | 88 | –
O=C1Nc2ccccc2/C1=C1/Sc2ccccc2C1=O [Compound 6a, (2′Z)-Thioindirubin] | >100 | 90 | 99 | 77 | –
O=C1Sc2ccccc2/C1=C1/Nc2cc(Cl)ccc2C1=O [Compound 6c, (2′Z)-6′-Chlorothioindirubin] | 80 | 82 | 84 | 96 | –
COC(=O)c1ccc2c(c1)C(=N\OCCN1CCOCC1)/C(=C1/C(=O)Nc3ccccc31)S2 [Compound 9c, (2′Z,3′E)-5′-(Methoxycarbonyl)thioindirubin-3′-[O-(2-(morpholino)ethyl)]oxime] | – | – | – | – | Cell viability at 10 μM (% control) DU145 ([1]; DU145, 10 μM): 101 % control; Cell viability at 10 μM (% control) A2058 ([2]; A2058, 10 μM): 70 % control
N#Cc1ccc2c(c1)C(=O)/C(=C1/C(=O)Sc3ccccc31)N2 [Compound 6d, (2′Z)-5′-Cyanothioindirubin] | >100 | 95 | 95 | 87 | –
COC(=O)c1ccc2c(c1)C(=N\O)/C(=C1/C(=O)Nc3ccccc31)S2 [Compound 7e, (2′Z,3′E)-5′-(Methoxycarbonyl)thioindirubin-3′-oxime] | >100 | 88 | 90 | 68 | IC50 [1]: > 10 µM; IC50 ([3]; DMS114, 48 h): > 10 µM; IC50 ([4]; H358, 48 h): 7.7 µM; IC50 ([5]; H526, 48 h): > 10 µM; IC50 [6]: > 10 µM; IC50 [7]: > 10 µM; IC50 [8]: > 10 µM; IC50 [9]: > 10 µM; IC50 [2]: > 10 µM; IC50 [10]: > 10 µM; IC50 ([11]; DMS273, 48 h): > 10 µM
COC(=O)c1ccc2c(c1)C(=N\OCCN1CCNCC1)/C(=C1/C(=O)Sc3ccccc31)N2 [Compound 9b, (2′Z,3′E)-5′-(Methoxycarbonyl)thioindirubin-3′-[O-(2-(piperazin-1-yl)ethyl)]oxime] | – | – | – | – | viabilities of these cells at 10 μM concentration (DU145), in words ([1]; DU145, 10 μM): extremely reduced viabilities; Cell viability at 10 μM (% control) DU145 ([1]; DU145, 10 μM): 17 % control; IC50 ([1]; Homo sapiens, DU-145): 2.53 µM; IC50 ([3]; Homo sapiens, DMS-114, DMS114, 48 h): 1.13 µM; IC50 [12]: ~1 µM; IC50 ([4]; Homo sapiens, NCI-H358, H358, 48 h): 2.4 µM; IC50 ([5]; Homo sapiens, NCI-H526, H526, 48 h): 1.7 µM; IC50 ([6]; Homo sapiens): 4.6 µM; IC50 [7]: 1.6 µM; IC50 [8]: 1 µM; IC50 [9]: 1.02 µM; viabilities of these cells at 10 μM concentration (A2058), in words ([2]; A2058, 10 μM): extremely reduced viabilities; Cell viability at 10 μM (% control) A2058 ([2]; A2058, 10 μM): 8 % control; IC50 ([2]; Homo sapiens): 1.07 µM; IC50 [10]: 0.78 µM; IC50 ([11]; Homo sapiens, DMS-273, DMS273, 48 h): 6.1 µM
N#Cc1ccc2c(c1)C(=N\O)/C(=C1/C(=O)Nc3ccccc31)S2 [Compound 7d, (2′Z,3′E)-5′-Cyanothioindirubin-3′-oxime] | >100 | 93 | 89 | 99 | –
O=C1Nc2ccccc2/C1=C1/Sc2ccccc2/C1=N\OCCN1CCNCC1 [Compound 9a, (2′Z,3′E)-Thioindirubin-3′-[O-(2-(piperazin-1-yl)ethyl)]oxime] | – | – | – | – | Cell viability at 10 μM (% control) DU145 ([1]; DU145, 10 μM): 82 % control; Cell viability at 10 μM (% control) A2058 ([2]; A2058, 10 μM): 91 % control
Cc1ccc2c(c1)C(=O)/C(=C1/C(=O)Nc3ccccc31)S2 [Compound 6g, (2′Z)-5′-Methylthioindirubin] | 94 | >100 | >100 | 97 | –
O=C1Sc2ccccc2/C1=C1/Nc2ccc(Br)cc2C1=O [Compound 6b, (2′Z)-5′-Bromothioindirubin] | >100 | >100 | 97 | 100 | –
COC(=O)c1ccc2c(c1)S/C(=C1\C(=O)Nc3ccccc31)C2=O [Compound 6f, (2′Z)-6′-(Methoxycarbonyl)thioindirubin] | 99 | 93 | 93 | >100 | –
O=C1Sc2ccccc2/C1=C1/Nc2cc(Cl)ccc2/C1=N\O [Compound 7c, (2′Z,3′E)-6′-Chlorothioindirubin-3′-oxime] | >100 | 33 | 86 | 27 | –
COC(=O)c1ccc2c(c1)NC(=C1\C(=O)Sc3ccccc31)/C2=N/O [Compound 7f, (2′Z,3′E)-6′-(Methoxycarbonyl)thioindirubin-3′-oxime] | >100 | >100 | 92 | >100 | –
COC(=O)c1ccc2c(c1)C(=O)/C(=C1/C(=O)Sc3ccccc31)N2 [Compound 6e, (2′Z)-5′-(Methoxycarbonyl)thioindirubin] | >100 | >100 | 92 | 94 | –
